Laboratory results from article PMC7956587, “Molecular Docking Studies and Biological Evaluation of Berberine–Benzothiazole Derivatives as an Anti-Influenza Agent via Blocking of Neuraminidase” (International Journal of Molecular Sciences, 2021).
Like-named read-outs stand apart in the source and are kept apart here.

Tests used:
[1] = system: influenza B virus B/Lee/40; test: In vitro antiviral bioassay (CPE reduction, SRB) in MDCK cells; format: cell-based; conditions: for IC50: Influenza B virus, MDCK cells, 50 TCID50, 48 h, mean ± S.D., triplicate; for TI B/LEE/40: Therapeutic index, TI = CC50/IC50
[2] = system: influenza A virus A/PR/8/34 (H1N1); test: as above; format: cell-based; conditions: for IC50: Influenza A virus, MDCK, 48 h; for TI A/PR/8/34 (H1N1): Therapeutic index, TI = CC50/IC50
in vitro = conditions: dog
[3] = target: influenza virus neuraminidase (Influenza A virus, UniProt P03468); test: Viral neuraminidase inhibition assay (NA-Star kit); format: biochemical, influenza A/PR/8/34 virus; conditions: for activity at 0.1 µg/mL: at 0.1 μg/mL; for activity at 0.1 µg/mL / activity at 1 µg/mL / activity at 10 µg/mL: (Treatment/Virus) × 100, remaining activity; for activity at 1 µg/mL: at 1 μg/mL; for activity at 10 µg/mL: at 10 μg/mL
[4] = system: influenza B virus B/Maryland/1/59; test: In vitro antiviral bioassay (CPE reduction, SRB) in MDCK cells; format: cell-based; conditions: for IC50: Influenza B virus, read-out: IC50 B/MARYLAND/1/59; for TI B/MARYLAND/1/59: Therapeutic index, TI = CC50/IC50
[5] = system: influenza A virus A/Vic/3/75 (H3N2); test: as above; format: cell-based; conditions: for IC50: Influenza A virus, H3N2, MDCK, 48 h; for TI A/VIC/3/75 (H3N2): Therapeutic index, TI = CC50/IC50
MDCK cells = conditions: dog, 48 h
[6] = Cytotoxicity on MDCK cells, SRB method; conditions: dog
[7] = MDCK cells, 50 TCID50, 48 h, mean ± S.D., triplicate

Sequence of influenza virus neuraminidase (P03468 whole entry, looked up): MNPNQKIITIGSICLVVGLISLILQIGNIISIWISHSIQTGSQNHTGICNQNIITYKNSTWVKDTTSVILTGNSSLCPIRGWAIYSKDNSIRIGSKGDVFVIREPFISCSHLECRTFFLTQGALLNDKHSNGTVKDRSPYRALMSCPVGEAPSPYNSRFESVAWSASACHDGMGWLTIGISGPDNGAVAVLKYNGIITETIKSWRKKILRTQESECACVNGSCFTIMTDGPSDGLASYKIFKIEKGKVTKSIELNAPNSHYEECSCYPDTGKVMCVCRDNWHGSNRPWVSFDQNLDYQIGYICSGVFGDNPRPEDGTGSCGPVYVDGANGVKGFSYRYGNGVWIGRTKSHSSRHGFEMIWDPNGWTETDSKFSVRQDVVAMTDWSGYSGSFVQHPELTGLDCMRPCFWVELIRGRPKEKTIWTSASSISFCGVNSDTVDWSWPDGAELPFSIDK

| SMILES | IC50 [1] [µg/mL] | TI B/LEE/40 [1] | IC50 [2] [µg/mL] | TI A/PR/8/34 (H1N1) [2] | CC50 at 48 h (in vitro) [µg/mL] | activity at 0.1 µg/mL [3] [%] | activity at 1 µg/mL [3] [%] | activity at 10 µg/mL [3] [%] | IC50 [4, 7] [µg/mL] | TI B/MARYLAND/1/59 [4] | IC50 [5] [µg/mL] | TI A/VIC/3/75 (H3N2) [5] | CC50 (MDCK cells) [µg/mL] | NA inhibition activity (in words) ([3]; compared with oseltamivir, Figure 1) | CC50 at 48 h [6] [µg/mL] | IC50 ([4]; MDCK, 48 h) [µg/mL] |
| --- | --- | --- | --- | --- | --- | --- | --- | --- | --- | --- | --- | --- | --- | --- | --- | --- |
| COc1ccc2cc3[n+](cc2c1OCCCCCNc1nc2c(F)cc(F)cc2s1)CCc1cc2c(cc1-3)OCO2 [BBD 11] | 85.1 ± 3.74 | 5.494 | 27.2 ± 0.394 | 17.19 | > 100 | 40.8 | 33.2 | 18.4 | 98.3 ± 2.21 | 4.75 | 48.4 ± 2.2 | 9.655 | 467.7 ± 2.647 | – | – | – |
| COc1ccc2cc3[n+](cc2c1OCCCCCNc1nc2ccc(F)cc2s1)CCc1cc2c(cc1-3)OCO2 [BBD 10] | 64.6 ± 1.24 | 4.812 | 30.5 ± 0.761 | 10.18 | > 100 | – | – | – | 75.7 ± 2.06 | 4.100 | 49.9 ± 1.31 | 6.228 | 310.6 ± 1.629 | – | – | – |
| COc1ccc2cc3[n+](cc2c1OCCCCCNc1nc2ccccc2s1)CCc1cc2c(cc1-3)OCO2 [BBD 1] | 55.5 ± 3.77 | 7.874 | 25.2 ± 0.154 | 17.32 | > 100 | 40.3 | 30.4 | 15.6 | 55.1 ± 2.65 | 7.924 | 45.1 ± 1.75 | 9.672 | 436.7 ± 2.635 | – | – | – |
| COc1ccc2nc(NCCCCCOc3c(OC)ccc4cc5[n+](cc34)CCc3cc4c(cc3-5)OCO4)sc2c1 [BBD 5] | 36.9 ± 1.52 | 8.294 | 39.54 ± 0.326 | 7.749 | > 100 | – | – | – | 44.3 ± 2.06 | 6.921 | 57.3 ± 2.13 | 5.343 | 306.4 ± 3.612 | moderate NA inhibition activity | – | – |
| COc1ccc2cc3[n+](cc2c1OCCCCCNc1nc2ccc(Br)cc2s1)CCc1cc2c(cc1-3)OCO2 [BBD 8] | 74.8 ± 1.83 | 4.395 | 68.02 ± 0.67 | 4.835 | > 100 | – | – | – | 81.2 ± 0.91 | 4.052 | 70.7 ± 0.94 | 4.65 | 328.9 ± 1.065 | – | – | – |
| COc1ccc2cc3[n+](cc2c1OC)CCc1cc2c(cc1-3)OCO2 [BERBERINE, Berberine] | 60.8 ± 1.86 | 1.07 | 36.1 ± 1.57 | 1.808 | – | – | – | – | – | 1.196 | 41.6 ± 2.04 | 1.571 | – | – | 65.3 ± 1.92 | 54.6 ± 1.45 |
| COc1ccc2cc3[n+](cc2c1OCCCCCNc1nc2ccc(C(F)(F)F)cc2s1)CCc1cc2c(cc1-3)OCO2 [BBD 12] | 67.7 ± 1.52 | 4.468 | 28.7 ± 0.514 | 10.52 | > 100 | – | – | – | 66.2 ± 1.82 | 4.565 | 44.6 ± 1.65 | 6.784 | 302.3 ± 2.446 | – | – | – |
| COc1ccc2cc3[n+](cc2c1OCCCCCNc1nc2ccc(C(=O)O)cc2s1)CCc1cc2c(cc1-3)OCO2 [BBD 3] | 53.9 ± 1.36 | 7.105 | 35.9 ± 0.659 | 10.65 | > 100 | – | – | – | 56.4 ± 1.06 | 6.784 | 60.7 ± 1.06 | 6.303 | 382.9 ± 2.964 | – | – | – |
